# pKd: −log10 of the molar value. Non-standard residues stand in square brackets, D forms with d. Residues, ends and D or L forms follow the SMILES beside them. *: point of attachment. FITC = O=C1OC2(c3ccc(O)cc3Oc3cc(O)ccc32)c2ccc(NC(=S)*)cc21; Nle = CCCC[C@H](N)C(=O)O; AEEA = NCCOCCOCC(=O)O; βAla = NCCC(=O)O
# Target: T1, full length β-catenin (aa 1-781) (Homo sapiens, UniProt P35222)
# T1 sequence (P35222 1-781): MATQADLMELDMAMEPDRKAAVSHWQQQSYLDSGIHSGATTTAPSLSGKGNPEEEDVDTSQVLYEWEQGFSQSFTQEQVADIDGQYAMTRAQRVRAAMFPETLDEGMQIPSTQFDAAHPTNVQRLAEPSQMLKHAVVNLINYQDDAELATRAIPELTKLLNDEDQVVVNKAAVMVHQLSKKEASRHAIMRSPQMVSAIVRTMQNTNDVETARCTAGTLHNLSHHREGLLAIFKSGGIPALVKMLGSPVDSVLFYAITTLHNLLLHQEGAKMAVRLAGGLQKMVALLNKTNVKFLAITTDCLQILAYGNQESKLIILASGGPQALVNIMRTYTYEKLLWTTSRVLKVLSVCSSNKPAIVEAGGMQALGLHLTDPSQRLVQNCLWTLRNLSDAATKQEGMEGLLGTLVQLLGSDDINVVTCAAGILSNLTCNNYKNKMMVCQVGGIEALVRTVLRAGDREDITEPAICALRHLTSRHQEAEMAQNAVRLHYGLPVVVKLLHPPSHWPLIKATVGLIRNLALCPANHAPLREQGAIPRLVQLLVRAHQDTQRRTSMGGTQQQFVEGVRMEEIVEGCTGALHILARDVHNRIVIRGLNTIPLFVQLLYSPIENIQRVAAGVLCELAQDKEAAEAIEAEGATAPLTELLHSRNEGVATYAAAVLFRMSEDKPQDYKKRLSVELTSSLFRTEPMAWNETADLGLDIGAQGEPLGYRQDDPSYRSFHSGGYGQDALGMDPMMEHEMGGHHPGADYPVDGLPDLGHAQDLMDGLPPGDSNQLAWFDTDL
# Experiment: Direct fluorescence polarization
# Assay type: binding
row,pKd,SMILES
1,< 5.30,CCCC[C@H](NC(=O)[C@H](CC(C)C)NC(=O)[C@@H](NC(=O)[C@@H]1CCCN1C(=O)[C@H](C)NC(=O)[C@@H](NC(=O)[C@H](CC(=O)O)NC(=O)[C@H](CC(N)=O)NC(=O)[C@H](CCCNC(=N)N)NC(=O)[C@@H](NC(=O)[C@@H](NC(=O)CCNC(=O)CCNC(=O)[C@H](Cc1ccccc1)NC(=O)[C@@H](NC(=O)[C@H](CC(C)C)NC(=O)[C@H](CC(C)C)NC(=O)[C@H](CO)NC(=O)[C@H](CC(=O)O)NC(=O)COCCOCCNC(=S)Nc1ccc2c(c1)C(=O)OC21c2ccc(O)cc2Oc2cc(O)ccc21)C(C)C)C(C)C)[C@@H](C)O)C(C)C)[C@@H](C)O)C(=O)N[C@@H](CO)C(=O)N[C@H](C(=O)N1CCC[C@H]1C(=O)N[C@@H](CCC(N)=O)C(N)=O)C(C)C [peptide 9] ({FITC-AEEA}-DSLLVF[βAla][βAla]VTRNDVAPTL[Nle]SVPQ-NH2)
2,< 5.30,CC(C)C[C@H](NC(=O)[C@H](CO)NC(=O)[C@H](CC(=O)O)NC(=O)COCCOCCNC(=S)Nc1ccc2c(c1)C(=O)OC21c2ccc(O)cc2Oc2cc(O)ccc21)C(=O)N[C@@H](CC(C)C)C(=O)N[C@H](C(=O)N[C@@H](Cc1ccccc1)C(=O)NCCC(=O)NCCC(=O)N[C@H](C(=O)N[C@H](C(=O)N[C@@H](CCCNC(=N)N)C(=O)N[C@@H](CC(N)=O)C(=O)N[C@@H](CC(=O)O)C(=O)N[C@H](C(N)=O)C(C)C)[C@@H](C)O)C(C)C)C(C)C [peptide 11] ({FITC-AEEA}-DSLLVF[βAla][βAla]VTRNDV-NH2)

# From article PMC8252567 (Angewandte Chemie (International Ed. in English), 2021)
